Measured values published in US4406902A, “Dipeptidase inhibitors” (Merck & Co., Inc., priority 1981, dated 1983).

Assays:
[1] = target: T1, renal dipeptidase (E.C.3.4.13.11) (Sus scrofa, UniProt P22412); assay: in vitro screen: inhibition of hydrolysis of glycyldehydrophenylalanine (GDP) by solubilized dipeptidase from hog kidneys; type: biochemical; details: GDP 0.05 mM; pH 7.1; 37° C.; hog kidney dipeptidase; read-out: inhibitor binding constant, Ki (ki)
T1 construct: solubilized preparation of dipeptidase isolated from hog kidneys; from tissue; host or cells: hog kidney (solubilized, lyophilized enzyme preparation)
T1 sequence (P22412 17-409): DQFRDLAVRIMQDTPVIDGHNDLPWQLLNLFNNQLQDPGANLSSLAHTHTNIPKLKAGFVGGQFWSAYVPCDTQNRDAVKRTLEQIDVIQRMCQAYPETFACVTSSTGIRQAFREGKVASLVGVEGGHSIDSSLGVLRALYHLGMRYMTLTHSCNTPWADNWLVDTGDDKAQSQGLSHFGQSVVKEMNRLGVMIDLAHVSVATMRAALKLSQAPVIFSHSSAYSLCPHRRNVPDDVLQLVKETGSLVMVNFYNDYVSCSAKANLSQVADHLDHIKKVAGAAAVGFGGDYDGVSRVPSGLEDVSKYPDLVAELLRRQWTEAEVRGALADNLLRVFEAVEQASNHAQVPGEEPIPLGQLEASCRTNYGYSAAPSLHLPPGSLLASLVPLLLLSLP
Description: This measured the ability of compounds to inhibit hydrolysis of glycyldehydrophenylalanine (GDP) by a solubilized preparation of dipeptidase isolated from hog kidneys. The procedure is as follows: to a 1 ml. system containing 50 mM "MOPS" (3-(N-morpholino)propanesulfonic acid) buffer, pH 7.1, is added 5 μg of lyophilized enzyme, and the test compound at a final concentration of 0.1 mM. After a five minute incubation at 37° C., GDP is added to a final concentration of 0.05 mM. […] Inhibition of the enzyme is gauged by comparison to a standard run containing no inhibitor and is expressed as the inhibitor binding constant, Ki.

[2] = target: T2, renal dipeptidase (Sus scrofa, UniProt P22412); assay: hydrolysis of GDP and thienamycin as substrates by renal dipeptidase; type: biochemical, hog; details: GDP compared with thienamycin
T2 construct: GPI-anchored homodimer
T2 sequence (P22412 17-384): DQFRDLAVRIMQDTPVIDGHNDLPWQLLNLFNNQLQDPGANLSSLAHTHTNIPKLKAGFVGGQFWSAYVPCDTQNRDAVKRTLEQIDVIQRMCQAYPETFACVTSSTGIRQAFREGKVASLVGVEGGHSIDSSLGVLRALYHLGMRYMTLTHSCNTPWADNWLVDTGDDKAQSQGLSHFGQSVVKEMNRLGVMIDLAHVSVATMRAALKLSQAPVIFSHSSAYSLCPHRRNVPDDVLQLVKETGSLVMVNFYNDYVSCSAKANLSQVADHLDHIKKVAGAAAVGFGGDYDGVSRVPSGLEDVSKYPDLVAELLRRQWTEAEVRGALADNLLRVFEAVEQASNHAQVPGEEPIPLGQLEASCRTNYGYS

[3] = disposition studies with thienamycin, its natural analogs and semi-synthetic derivatives (urinary recovery, plasma half-life); type: in vivo; details: mouse, rat, dog, chimpanzee, Rhesus monkey
Description: Chem., 205 65 (1932); see also Greenstein, J. P., Advances in Enzymology, Vol. VIII, Wiley-Interscience, (1948), New York, and Campbell, B. J.; Lin, Y-C., Davis, R. V. and Ballew, E., "The Purification and Properties of Particulate Renal Dipeptidase", Biochim. Biophys. Acta., 118, 371 (1966).
Urinary recovery of thienamycin was measured in all cases with the use of a cylinder or disc diffusion assay, conducted in a manner described in U.S. Pat. No. 3,950,357. This bioassay, with Staphylococcus aureus ATCC 6538 as the test organism, has a useful response range from 0.04 μg/ml to 3.0 μg/ml.

SMILES	Ki [1] [nM]	also measured
CC1(C)CC1C(=O)N/C(=C\CCCCSc1ncccc1C(=O)O)C(=O)O (racemic) [Example 3, Racemic Z-7-(3-carboxy-2-pyridylthio)-2-(2,2-dimethylcyclopropanecarboxamido)-2-heptenoic acid]	40	
CC1(C)CC1C(=O)N/C(=C\CCCCSc1ccc(C(=O)O)cn1)C(=O)O (racemic) [Example 4, Racemic Z-7-(5-carboxy-2-pyridylthio)-2-(2,2-dimethylcyclopropanecarboxamido)-2-heptenoic acid]	250	
CC1(C)CC1C(=O)N/C(=C\CCCCSc1ncccc1O)C(=O)O (single isomer, unassigned; (+)) [Example 2, (+)-Z-2-(2,2-Dimethylcyclopropanecarboxamido)-7-(3-hydroxy-2-pyridylthio)-2-heptenoic acid]	20	
NCC(=O)NC(=Cc1ccccc1)C(=O)O [GDP, glycyldehydrophenylalanine]		maximal velocity of hydrolysis by renal dipeptidase [2]: much higher maximal velocity of hydrolysis
C[C@@H](O)[C@H]1C(=O)N2C(C(=O)O)=C(SCCN)C[C@H]12 [thienamycin]		plasma half-life [3]: short plasma half-lives; urinary recovery [3]: low urinary recovery
